In patent US10653146B2, “Microbiocidal oxadiazole derivatives” (SYNGENTA PARTICIPATIONS AG, priority 2016, dated 2020):

What was measured:
[1] = tested on: Puccinia recondita f. Sp. Tritici; assay: Fungicidal activity against Puccinia recondita f. sp. tritici / wheat / leaf disc preventative (brown rust); format: in vivo; conditions: foliar, 200 ppm in the applied formulation, wheat leaf segments cv. Kanzler, inoculated 1 day after application, assessed 7 to 9 days after application, read-out: disease control compared to untreated control leaf disks
Protocol: Leaf disks or leaf segments of various plant species are cut from plants grown in a greenhouse. The cut leaf disks or segments are placed in multiwell plates (24-well format) onto water agar. The leaf disks are sprayed with a test solution before (preventative) or after (curative) inoculation. Compounds to be tested are prepared as DMSO solutions (max. 10 mg/ml) which are diluted to the appropriate concentration with 0.025% Tween20 just before spraying. The inoculated leaf disks or segments are incubated under defined conditions (temperature, relative humidity, light, etc.) according to the respective test system. A single evaluation of disease level is carried out 3 to 14 days after inoculation, depending on the pathosystem. Percent disease control relative to the untreated check leaf disks or segments is then calculated. Wheat leaf segments cv. Kanzler were placed on agar in multiwell plates (24-well format) and sprayed with the formulated test compound diluted in water. The leaf disks were inoculated with a spore suspension of the fungus 1 day after application. The inoculated leaf segments were incubated at 19° C. and 75% relative humidity (rh) under a light regime of 12 hours light/12 hours darkness in a climate cabinet and the activity of a compound was assessed as percent disease control compared to untreated when an appropriate level of disease damage appears in untreated check leaf segments (7 to 9 days after application). The following compounds at 200 ppm in the applied formulation give at least 80% disease control in this test when compared to untreated control leaf disks under the same conditions, which show extensive disease development.

[2] = tested on: Glomerella lagenarium (Colletotrichum lagenarium); assay: Fungicidal activity against Glomerella lagenarium (Colletotrichum lagenarium) liquid culture / cucumber / preventative (anthracnose); format: cell-based; conditions: Colletotrichum orbiculare; 20 ppm in the applied formulation; liquid culture in PDB, 24° C.; 3 to 4 days after application; read-out: disease control compared to untreated control (inhibition of growth measured photometrically)
Protocol: Mycelia fragments or conidia suspensions of a fungus prepared either freshly from liquid cultures of the fungus or from cryogenic storage, are directly mixed into nutrient broth. DMSO solutions of the test compound (max. 10 mg/ml) are diluted with 0.025% Tween20 by a factor of 50 and 10 μl of this solution is pipetted into a microtiter plate (96-well format). The nutrient broth containing the fungal spores/mycelia fragments is then added to give an end concentration of the tested compound. The test plates are incubated in the dark at 24° C. and 96% relative humidity. The inhibition of fungal growth is determined photometrically after 2 to 7 days, depending on the pathosystem, and percent antifungal activity relative to the untreated check is calculated.
Conidia of the fungus from cryogenic storage are directly mixed into nutrient broth (PDB—potato dextrose broth). After placing a (DMSO) solution of test compound into a microtiter plate (96-well format), the nutrient broth containing the fungal spores is added. The test plates are incubated at 24° C. and the inhibition of growth is measured photometrically 3 to 4 days after application.
The following compounds at 20 ppm in the applied formulation give at least 80% disease control in this test when compared to untreated control under the same conditions, which show extensive disease development.

[3] = tested on: Puccinia recondite f. Sp. Tritici; assay: Fungicidal activity against Puccinia recondite f. sp. tritici / wheat / leaf disc curative (brown rust); format: in vivo; conditions: foliar, 200 ppm in the applied formulation, wheat leaf segments cv. Kanzler, applied 1 day after inoculation, assessed 6 to 8 days after application, read-out: disease control compared to untreated control leaf disks
Protocol: Leaf disks or leaf segments of various plant species are cut from plants grown in a greenhouse. The cut leaf disks or segments are placed in multiwell plates (24-well format) onto water agar. The leaf disks are sprayed with a test solution before (preventative) or after (curative) inoculation. Compounds to be tested are prepared as DMSO solutions (max. 10 mg/ml) which are diluted to the appropriate concentration with 0.025% Tween20 just before spraying. The inoculated leaf disks or segments are incubated under defined conditions (temperature, relative humidity, light, etc.) according to the respective test system. A single evaluation of disease level is carried out 3 to 14 days after inoculation, depending on the pathosystem. Percent disease control relative to the untreated check leaf disks or segments is then calculated.
Wheat leaf segments cv. Kanzler are placed on agar in multiwell plates (24-well format). The leaf segments are then inoculated with a spore suspension of the fungus. Plates were stored in darkness at 19° C. and 75% relative humidity. The formulated test compound diluted in water was applied 1 day after inoculation. The leaf segments were incubated at 19° C. and 75% relative humidity under a light regime of 12 hours light/12 hours darkness in a climate cabinet and the activity of a compound was assessed as percent disease control compared to untreated when an appropriate level of disease damage appears in untreated check leaf segments (6 to 8 days after application).
The following compounds at 200 ppm in the applied formulation give at least 80% disease control in this test when compared to untreated control leaf disks under the same conditions, which show extensive disease development.

| Structure (SMILES) | melting point [°C] | pest or weed control at 200 ppm [1] [%] | inhibition at 20 ppm [2] [%] | pest or weed control at 200 ppm [3] [%] |
| --- | --- | --- | --- | --- |
| CCCCNC(=O)C(=O)c1ccc(-c2noc(C(F)(F)F)n2)cc1 [Compound 1.12, N-butyl-2-oxo-2-[4-[5-(trifluoromethyl)-1,2,4-oxadiazol-3-yl]phenyl]acetamide] | 65.1 to 68.2 | ≥ 80 | ≥ 80 | ≥ 80 |
| C=CCONC(=O)C(=O)c1ccc(-c2noc(C(F)(F)F)n2)cc1 [Compound 1.6, N-allyloxy-2-oxo-2-[4-[5-(trifluoromethyl)-1,2,4-oxadiazol-3-yl]phenyl]acetamide] | – | ≥ 80 | – | – |
| O=C(NCc1ccccc1F)C(=O)c1ccc(-c2noc(C(F)(F)F)n2)cc1 [Compound 1.26, N-[(2-fluorophen-yl)methyl]-2-oxo-2-[4-[5-(trifluoromethyl)-1,2,4-oxadiazol-3-yl]phenyl]acetamide] | 84 to 86 | ≥ 80 | ≥ 80 | ≥ 80 |
| CN(C)C(=O)C(=O)c1ccc(-c2noc(C(F)(F)F)n2)cc1 [Compound 1.5, N,N-dimethyl-2-oxo-2-[4-[5-(trifluoromethyl)-1,2,4-oxadiazol-3-yl]phenyl]acetamide] | – | ≥ 80 | ≥ 80 | ≥ 80 |
| Cc1ccsc1CN(C)C(=O)C(=O)c1ccc(-c2noc(C(F)(F)F)n2)cc1 [Compound 1.29, N-methyl-N-[(3-methyl-2-thienyl)methyl]-2-oxo-2-[4-[5-(trifluoromethyl)-1,2,4-oxadiazol-3-yl]phenyl]acetamide] | – | – | ≥ 80 | – |
| CNC(=O)C(=O)c1ccc(-c2noc(C(F)(F)F)n2)cc1 [Compound 1.17, N-methyl-2-oxo-2-[4-[5-(trifluoromethyl)-1,2,4-oxadiazol-3-yl]phenyl]acetamide] | 128.1 to 130.8 | ≥ 80 | ≥ 80 | ≥ 80 |
| COC(CNC(=O)C(=O)c1ccc(-c2noc(C(F)(F)F)n2)cc1)OC [Compound 1.38, N-(2,2-dimethoxyethyl)-2-oxo-2-[4-[5-(trifluoromethyl)-1,2,4-oxadiazol-3-yl]phenyl]acetamide] | 88 to 89 | ≥ 80 | ≥ 80 | ≥ 80 |
| CCCN(C)C(=O)C(=O)c1ccc(-c2noc(C(F)(F)F)n2)cc1 [Compound 1.22, N-methyl-2-oxo-N-propyl-2-[4-[5-(trifluoromethyl)-1,2,4-oxadiazol-3-yl]phenyl]acetamide] | – | ≥ 80 | ≥ 80 | ≥ 80 |
| COCCNC(=O)C(=O)c1ccc(-c2noc(C(F)(F)F)n2)cc1 [Compound 1.40, N-(2-methoxy-ethyl)-2-oxo-2-[4-[5-(trifluoromethyl)-1,2,4-oxadiazol-3-yl]phenyl]acetamide] | – | ≥ 80 | ≥ 80 | ≥ 80 |
| CON1CCN(C(=O)C(=O)c2ccc(-c3noc(C(F)(F)F)n3)cc2)CC1 [Compound 1.3, 1-(4-methoxypiperazin-1-yl)-2-[4-[5-(trifluoromethyl)-1,2,4-oxadiazol-3-yl]phenyl]ethane-1,2-dione] | – | ≥ 80 | ≥ 80 | – |
| CCON(C)C(=O)C(=O)c1ccc(-c2noc(C(F)(F)F)n2)cc1 [Compound 1.32, N-ethoxy-N-methyl-2-oxo-2-[4-[5-(trifluoromethyl)-1,2,4-oxadiazol-3-yl]phenyl]acetamide] | – | ≥ 80 | ≥ 80 | ≥ 80 |
| O=C(NOCC(F)F)C(=O)c1ccc(-c2noc(C(F)(F)F)n2)cc1 [Compound 1.4, N-(2,2-difluoroethoxy)-2-oxo-2-[4-[5-(trifluoromethyl)-1,2,4-oxadiazol-3-yl]phenyl]acetamide] | – | ≥ 80 | ≥ 80 | – |
| CN(C(=O)C(=O)c1ccc(-c2noc(C(F)(F)F)n2)cc1)c1ccccc1 [Compound 1.33, N-methyl-2-oxo-N-phenyl-2-[4-[5-(trifluoromethyl)-1,2,4-oxadiazol-3-yl]phenyl]acetamide] | – | – | ≥ 80 | – |
| COC(=O)CNC(=O)C(=O)c1ccc(-c2noc(C(F)(F)F)n2)cc1 [Compound 1.36, methyl 2-[[2-oxo-2-[4-[5-(trifluoromethyl)-1,2,4-oxadiazol-3-yl]phenyl]acet-yl]amino]acetate] | 89 to 90 | – | ≥ 80 | ≥ 80 |
| COCCN(CCOC)C(=O)C(=O)c1ccc(-c2noc(C(F)(F)F)n2)cc1 [Compound 1.30, N,N-bis(2-methoxyethyl)-2-oxo-2-[4-[5-(trifluoromethyl)-1,2,4-oxadiazol-3-yl]phenyl]acetamide] | – | – | ≥ 80 | ≥ 80 |
| CN(C)CCNC(=O)C(=O)c1ccc(-c2noc(C(F)(F)F)n2)cc1 [Compound 1.2, N-[2-(dimethyl-amino)ethyl]-2-oxo-2-[4-[5-(trifluoromethyl)-1,2,4-oxadiazol-3-yl]phenyl]acetamide] | – | – | ≥ 80 | – |
| CC(=O)NCCNC(=O)C(=O)c1ccc(-c2noc(C(F)(F)F)n2)cc1 [Compound 1.11, N-(2-acetamidoethyl)-2-oxo-2-[4-[5-(trifluoromethyl)-1,2,4-oxadiazol-3-yl]phenyl]acetamide] | – | ≥ 80 | ≥ 80 | ≥ 80 |
| CSCCNC(=O)C(=O)c1ccc(-c2noc(C(F)(F)F)n2)cc1 [Compound 1.23, N-(2-methyl-sulfanylethyl)-2-oxo-2-[4-[5-(trifluoromethyl)-1,2,4-oxadiazol-3-yl]phenyl]acetamide] | – | ≥ 80 | ≥ 80 | ≥ 80 |
| O=C(NCC1COCCO1)C(=O)c1ccc(-c2noc(C(F)(F)F)n2)cc1 (centres unmarked) [Compound 1.28, N-(1,4-dioxan-2-ylmethyl)-2-oxo-2-[4-[5-(trifluoromethyl)-1,2,4-oxadiazol-3-yl]phenyl]acetamide] | – | ≥ 80 | ≥ 80 | ≥ 80 |
| O=C(NCCNC(=O)C1CC1)C(=O)c1ccc(-c2noc(C(F)(F)F)n2)cc1 [Compound 1.8, N-[2-[[2-oxo-2-[4-[5-(trifluoromethyl)-1,2,4-oxadiazol-3-yl]phenyl]acet-yl]amino]eth-yl]cyclopropane-carboxamide] | 209 to 210 | ≥ 80 | ≥ 80 | – |
| O=C(NCC(F)F)C(=O)c1ccc(-c2noc(C(F)(F)F)n2)cc1 [Compound 1.10, N-(2,2-difluoroethyl)-2-oxo-2-[4-[5-(trifluoromethyl)-1,2,4-oxadiazol-3-yl]phenyl]acetamide] | – | ≥ 80 | ≥ 80 | ≥ 80 |
